Calls of active or inactive are those of the source.
Experiments:
[1] = biological target: T1, Small ubiquitin-related modifier 1 (Homo sapiens, UniProt P63165); assay: SUMO1 protein-protein binding blockers, potency – biochemical, FRET, dose response (AID 624383); assay type: functional; details: read-out: IC50_Mean
[2] = biological target: T1, Small ubiquitin-related modifier 1; assay: SUMO1 protein interaction blockers, potency – biochemical, fluorescence polarization, uHTS hits, dose response (AID 624382); assay type: functional; details: read-out: IC50_Mean
[3] = biological target: T2, Adenosylmethionine-8-amino-7-oxononanoate aminotransferase (Mycobacterium tuberculosis, UniProt P9WQ81); assay: Mycobacterium tuberculosis BioA enzyme inhibitor Measured in Biochemical System Using Plate Reader - 2163-02_Inhibitor_Dose_CherryPick_Activity.; assay type: functional, Mycobacterium tuberculosis UT205
T2 sequence (P9WQ81 whole entry): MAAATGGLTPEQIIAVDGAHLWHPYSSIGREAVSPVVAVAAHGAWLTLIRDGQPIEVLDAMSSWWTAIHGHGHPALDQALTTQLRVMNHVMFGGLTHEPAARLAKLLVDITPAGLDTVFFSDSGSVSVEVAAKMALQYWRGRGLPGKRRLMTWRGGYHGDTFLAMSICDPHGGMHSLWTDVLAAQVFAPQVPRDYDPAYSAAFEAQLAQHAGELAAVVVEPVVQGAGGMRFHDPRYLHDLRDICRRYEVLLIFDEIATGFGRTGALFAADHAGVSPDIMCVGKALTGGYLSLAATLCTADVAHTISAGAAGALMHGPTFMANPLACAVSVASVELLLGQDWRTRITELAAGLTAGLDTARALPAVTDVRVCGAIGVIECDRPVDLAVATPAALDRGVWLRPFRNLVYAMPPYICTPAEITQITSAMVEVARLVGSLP

INS1 = assay: INS-1E survival protection against cytokine death – cell-based, luminescence, retest, dose response (AID 449756); assay type: functional; details: Rattus norvegicus;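 note: cell death triggered by IL-1 beta plus TNF-alpha plus IFN-gamma mixture; protective hits raise ATP signal compared with cytokine alone wells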
Protein RecA = biological target: T3, Protein RecA (Mycobacterium tuberculosis, UniProt P9WHJ3); assay: Fluorescence Cell-Free Homogeneous Dose Retest to Identify Inhibitors of RecA-Intein Splicing Activity. [Related pubchem assays (depositor defined):AID2097, AID2223, AID489010, AID492950]; assay type: functional
T3 sequence (P9WHJ3 whole entry): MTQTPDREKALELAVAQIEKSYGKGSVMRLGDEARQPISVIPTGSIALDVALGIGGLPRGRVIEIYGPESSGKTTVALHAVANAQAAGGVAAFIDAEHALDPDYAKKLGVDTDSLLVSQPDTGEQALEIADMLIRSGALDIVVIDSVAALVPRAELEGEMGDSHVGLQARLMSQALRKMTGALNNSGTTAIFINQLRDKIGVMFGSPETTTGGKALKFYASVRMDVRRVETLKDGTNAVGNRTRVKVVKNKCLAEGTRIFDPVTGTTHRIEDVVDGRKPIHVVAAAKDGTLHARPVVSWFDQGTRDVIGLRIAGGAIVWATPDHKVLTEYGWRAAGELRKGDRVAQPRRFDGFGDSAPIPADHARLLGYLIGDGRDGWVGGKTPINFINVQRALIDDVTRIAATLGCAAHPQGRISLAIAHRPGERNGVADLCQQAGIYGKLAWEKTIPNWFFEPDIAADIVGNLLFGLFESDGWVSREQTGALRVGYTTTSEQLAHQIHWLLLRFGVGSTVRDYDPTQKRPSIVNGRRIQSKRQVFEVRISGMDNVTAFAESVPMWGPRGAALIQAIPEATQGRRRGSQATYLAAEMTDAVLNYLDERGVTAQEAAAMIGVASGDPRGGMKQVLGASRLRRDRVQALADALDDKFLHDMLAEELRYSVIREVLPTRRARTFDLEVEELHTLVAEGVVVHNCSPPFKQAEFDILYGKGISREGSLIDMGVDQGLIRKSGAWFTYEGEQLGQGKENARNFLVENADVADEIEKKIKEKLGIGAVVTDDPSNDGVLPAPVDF

Streptococcus = assay: GAS UMAA2166 growth inhibition – luminescence, BacTiterGlo, counter-screen for streptokinase expression inhibitor project, dose response (AID 1915); assay type: functional, organism-based;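 note: potency for reduction of bacterial viability or growth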
cells [4] = assay type: functional, cell-based
[5] = NIH-3T3 fibroblast cytotoxicity, dose response, cytotoxicity control, cell-based, fluorescence, Alamar Blue, secondary assay (AID 2327); assay type: functional;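 note: NIH-3T3 mouse fibroblasts cultured with fluconazole at 8 µg/mL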
[6] = biological target: T4, Heat shock factor protein 1 (Mus musculus, UniProt P38532); assay: enhancement of HSF1-driven luciferase signal – cell-based, NIH3T3, luminescence, dose retest, confirmation (AID 435004); assay type: functional;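 note: stress induced by proteasome inhibitor MG132 added 30 min after compound; luciferase reporter driven by HSF1 response element in NIH3T3 cells; actives raise luminescence as potentiators of the MG132 stress response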
T4 sequence (P38532 whole entry): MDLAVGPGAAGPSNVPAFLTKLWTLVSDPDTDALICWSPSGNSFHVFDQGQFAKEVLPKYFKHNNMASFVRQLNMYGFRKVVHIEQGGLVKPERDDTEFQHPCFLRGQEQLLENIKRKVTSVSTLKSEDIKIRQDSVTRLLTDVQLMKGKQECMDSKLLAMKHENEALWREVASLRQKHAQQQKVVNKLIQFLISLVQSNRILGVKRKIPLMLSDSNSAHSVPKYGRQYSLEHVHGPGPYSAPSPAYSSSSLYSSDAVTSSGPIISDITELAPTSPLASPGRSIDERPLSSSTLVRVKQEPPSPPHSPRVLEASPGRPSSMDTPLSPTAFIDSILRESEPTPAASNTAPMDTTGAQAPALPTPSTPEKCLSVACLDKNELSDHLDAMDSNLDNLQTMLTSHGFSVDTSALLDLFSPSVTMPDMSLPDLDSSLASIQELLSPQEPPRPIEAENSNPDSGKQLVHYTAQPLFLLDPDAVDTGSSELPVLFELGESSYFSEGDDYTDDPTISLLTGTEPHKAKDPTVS

Nonstructural protein 1 = Nonstructural protein 1 (Influenza A virus, UniProt Q194T2); assay type: functional, Influenza A virus (A/California/07/2009(H1N1))
[7] = biological target: Dual specificity tyrosine-phosphorylation-regulated kinase 1A (Rattus norvegicus, UniProt Q63470); assay type: biochemical, Homo sapiens
BJ [8] = assay: BJ-TERT fibroblast viability loss – cell-based, RAS-independent, luminescence, dose response (AID 1933); assay type: functional; details: Homo sapiens
BJ [9] = assay: cells; assay type: functional, cell-based; details: Homo sapiens
[10] = fluconazole-exposed Candida albicans growth modulators – fluorescence, retest, confirmation (AID 2467); assay type: functional, cell-based
[11] = biological target: T5, Replicative DNA helicase DnaB (Mycobacterium tuberculosis, UniProt P9WMR3); assay: DnaB intein splicing inhibitors, dose response, biochemical, cell-free fluorescence (AID 449749); assay type: functional
T5 sequence (P9WMR3 whole entry): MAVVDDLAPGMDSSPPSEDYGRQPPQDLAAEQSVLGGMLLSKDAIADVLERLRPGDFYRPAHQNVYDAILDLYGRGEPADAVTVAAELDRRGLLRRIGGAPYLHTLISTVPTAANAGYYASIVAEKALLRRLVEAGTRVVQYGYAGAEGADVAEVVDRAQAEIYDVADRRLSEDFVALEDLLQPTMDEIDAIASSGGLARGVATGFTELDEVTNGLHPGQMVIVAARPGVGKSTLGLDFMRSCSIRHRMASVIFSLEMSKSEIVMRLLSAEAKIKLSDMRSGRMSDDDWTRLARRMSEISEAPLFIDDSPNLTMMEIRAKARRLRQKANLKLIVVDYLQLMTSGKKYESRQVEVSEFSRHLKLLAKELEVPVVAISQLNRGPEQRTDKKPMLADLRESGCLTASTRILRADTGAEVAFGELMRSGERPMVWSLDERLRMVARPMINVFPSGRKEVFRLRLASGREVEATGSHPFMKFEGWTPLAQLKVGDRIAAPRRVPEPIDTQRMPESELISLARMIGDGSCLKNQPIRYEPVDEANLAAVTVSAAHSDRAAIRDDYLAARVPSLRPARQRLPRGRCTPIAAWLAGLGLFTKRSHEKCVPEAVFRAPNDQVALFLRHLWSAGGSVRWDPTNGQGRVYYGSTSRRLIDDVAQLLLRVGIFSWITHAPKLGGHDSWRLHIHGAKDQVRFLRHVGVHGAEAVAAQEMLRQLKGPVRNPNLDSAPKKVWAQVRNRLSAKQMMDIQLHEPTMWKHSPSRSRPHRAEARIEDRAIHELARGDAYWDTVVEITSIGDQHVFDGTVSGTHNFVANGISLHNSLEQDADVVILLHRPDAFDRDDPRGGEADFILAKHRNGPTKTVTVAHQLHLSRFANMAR

[12] = biological target: Photoreceptor-specific nuclear receptor (Homo sapiens, UniProt Q9Y5X4); assay type: functional, cell-based;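 note: CHO-S cells with Gal4-NCOR and VP16-NR2E3 two-hybrid luciferase reporter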
Paired box protein Pax-8 = Paired box protein Pax-8 (Homo sapiens, UniProt Q06710); assay: PAX8 transcriptional activity inhibition in RMG-I – RMG-I cells, luciferase, cherry-pick, dose response (AID 687027); assay type: functional, cell-based;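 note: luciferase reporter driven by Pax8 target thyroperoxidase promoter measured by SteadyGlo luminescence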
BJ [13] = assay: BJ-TERT-LT-ST fibroblast viability loss – cell-based, RAS-independent, luminescence, dose response (AID 1935); assay type: functional; details: Homo sapiens;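 note: BJ fibroblasts immortalized with TERT plus LT and ST oncogenes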
[14] = DRD fibroblast viability loss – cell-based, non-viral oncogenic, luminescence, dose response (AID 1934); assay type: functional; details: Homo sapiens
[15] = tested on: Streptococcus sp. 'group A'; assay: Streptococcus pyogenes SK(-)GAS viability under kanamycin – luminescence, BacTiterGlo, confirmation, counter-screen for streptokinase expression inhibitor project, dose response (AID 1900); assay type: functional, organism-based
cells [16] = assay type: functional, cell-based; remark: listed apart in the source
[17] = biological target: Ras and Rab interactor 1/Tyrosine-protein kinase ABL1 (Homo sapiens, UniProt P00519+Q13671); assay type: functional;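 note: biochemical TR-FRET dose-response test measuring inhibition of binding between Rin1 and Abl proteins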
P388/ADR = assay: cells; assay type: functional; details: Mus musculus
P388 = assay: cells; assay type: functional; details: Mus musculus
Vero = assay: cells; assay type: functional; details: Chlorocebus sabaeus
[18] = Fluorescence-based cell-based high throughput dose response assay for inhibitors of the interaction of nucleotide-binding oligomerization domain containing 2 (NOD2) and the receptor-interacting serine-threonine kinase 2 (RIPK2).; assay type: functional; details: Homo sapiens
[19] = biological target: Heat shock protein HSP 90-alpha (Homo sapiens, UniProt P07900); assay type: functional, organism-based

T1 sequence (P63165 whole entry): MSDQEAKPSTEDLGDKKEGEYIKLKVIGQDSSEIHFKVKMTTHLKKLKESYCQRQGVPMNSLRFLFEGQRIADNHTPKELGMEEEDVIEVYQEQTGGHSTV
Chain of Paired box protein Pax-8 (Q06710 whole entry): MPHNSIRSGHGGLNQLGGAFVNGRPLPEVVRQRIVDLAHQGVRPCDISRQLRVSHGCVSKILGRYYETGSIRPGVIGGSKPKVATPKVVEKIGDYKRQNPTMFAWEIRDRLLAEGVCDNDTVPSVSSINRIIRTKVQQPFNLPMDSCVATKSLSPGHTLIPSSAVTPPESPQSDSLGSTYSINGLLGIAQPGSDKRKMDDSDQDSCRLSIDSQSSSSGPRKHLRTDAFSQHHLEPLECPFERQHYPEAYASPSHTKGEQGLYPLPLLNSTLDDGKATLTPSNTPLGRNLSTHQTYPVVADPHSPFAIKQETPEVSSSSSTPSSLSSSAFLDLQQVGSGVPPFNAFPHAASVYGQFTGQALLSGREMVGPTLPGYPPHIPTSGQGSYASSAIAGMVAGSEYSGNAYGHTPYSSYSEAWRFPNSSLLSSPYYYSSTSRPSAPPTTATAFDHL
Chain of Ras and Rab interactor 1/Tyrosine-protein kinase ABL1 (P00519 whole entry): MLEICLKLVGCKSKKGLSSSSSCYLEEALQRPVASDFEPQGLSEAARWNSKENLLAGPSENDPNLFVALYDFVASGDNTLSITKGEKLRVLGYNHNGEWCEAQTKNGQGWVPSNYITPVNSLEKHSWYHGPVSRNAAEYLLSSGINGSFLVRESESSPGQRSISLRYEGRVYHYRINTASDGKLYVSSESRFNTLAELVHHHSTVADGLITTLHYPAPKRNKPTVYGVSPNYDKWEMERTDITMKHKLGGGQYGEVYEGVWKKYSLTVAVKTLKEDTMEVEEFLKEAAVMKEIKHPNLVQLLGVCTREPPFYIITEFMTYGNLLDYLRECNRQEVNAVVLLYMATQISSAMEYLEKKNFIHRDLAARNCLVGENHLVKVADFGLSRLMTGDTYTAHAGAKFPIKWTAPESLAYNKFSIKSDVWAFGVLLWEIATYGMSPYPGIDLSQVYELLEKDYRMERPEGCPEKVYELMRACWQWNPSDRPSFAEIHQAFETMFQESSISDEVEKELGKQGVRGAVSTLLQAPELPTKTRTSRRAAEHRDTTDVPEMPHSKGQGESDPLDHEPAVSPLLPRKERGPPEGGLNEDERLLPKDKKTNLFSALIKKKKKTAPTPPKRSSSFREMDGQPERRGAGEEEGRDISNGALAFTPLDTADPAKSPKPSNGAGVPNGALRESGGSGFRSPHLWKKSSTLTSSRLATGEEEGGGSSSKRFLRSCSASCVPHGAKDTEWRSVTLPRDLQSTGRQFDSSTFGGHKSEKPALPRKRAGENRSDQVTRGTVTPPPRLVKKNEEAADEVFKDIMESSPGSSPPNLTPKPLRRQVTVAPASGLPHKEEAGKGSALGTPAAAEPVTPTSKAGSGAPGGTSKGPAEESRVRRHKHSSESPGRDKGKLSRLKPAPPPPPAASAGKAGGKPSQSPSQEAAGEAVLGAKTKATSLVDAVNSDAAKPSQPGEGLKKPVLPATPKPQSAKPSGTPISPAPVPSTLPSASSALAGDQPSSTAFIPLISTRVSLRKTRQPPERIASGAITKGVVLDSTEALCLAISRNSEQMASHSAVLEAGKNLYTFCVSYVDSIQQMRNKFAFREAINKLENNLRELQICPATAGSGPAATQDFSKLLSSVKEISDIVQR
Chain of Ras and Rab interactor 1/Tyrosine-protein kinase ABL1 (Q13671 whole entry): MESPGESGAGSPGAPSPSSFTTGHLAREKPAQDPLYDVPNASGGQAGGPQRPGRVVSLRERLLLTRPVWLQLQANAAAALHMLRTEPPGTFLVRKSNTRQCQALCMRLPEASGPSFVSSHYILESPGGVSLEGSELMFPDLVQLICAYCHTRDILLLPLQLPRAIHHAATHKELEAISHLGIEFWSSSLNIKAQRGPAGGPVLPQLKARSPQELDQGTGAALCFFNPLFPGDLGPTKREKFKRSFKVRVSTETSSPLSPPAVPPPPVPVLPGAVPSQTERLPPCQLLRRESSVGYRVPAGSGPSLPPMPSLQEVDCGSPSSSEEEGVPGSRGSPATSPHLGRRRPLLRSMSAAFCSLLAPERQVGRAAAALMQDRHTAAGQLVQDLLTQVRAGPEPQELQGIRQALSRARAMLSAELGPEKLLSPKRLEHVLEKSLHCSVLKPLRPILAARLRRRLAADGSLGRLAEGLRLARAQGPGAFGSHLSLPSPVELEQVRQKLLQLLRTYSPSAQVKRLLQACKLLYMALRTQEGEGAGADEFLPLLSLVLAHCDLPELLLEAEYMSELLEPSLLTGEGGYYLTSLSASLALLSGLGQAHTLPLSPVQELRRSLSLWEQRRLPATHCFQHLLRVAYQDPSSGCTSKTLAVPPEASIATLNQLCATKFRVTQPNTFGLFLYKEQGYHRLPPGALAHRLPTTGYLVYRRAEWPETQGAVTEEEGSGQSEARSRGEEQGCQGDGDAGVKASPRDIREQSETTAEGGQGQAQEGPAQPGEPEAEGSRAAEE
Chain of Photoreceptor-specific nuclear receptor (Q9Y5X4 whole entry, the tested form may be a part): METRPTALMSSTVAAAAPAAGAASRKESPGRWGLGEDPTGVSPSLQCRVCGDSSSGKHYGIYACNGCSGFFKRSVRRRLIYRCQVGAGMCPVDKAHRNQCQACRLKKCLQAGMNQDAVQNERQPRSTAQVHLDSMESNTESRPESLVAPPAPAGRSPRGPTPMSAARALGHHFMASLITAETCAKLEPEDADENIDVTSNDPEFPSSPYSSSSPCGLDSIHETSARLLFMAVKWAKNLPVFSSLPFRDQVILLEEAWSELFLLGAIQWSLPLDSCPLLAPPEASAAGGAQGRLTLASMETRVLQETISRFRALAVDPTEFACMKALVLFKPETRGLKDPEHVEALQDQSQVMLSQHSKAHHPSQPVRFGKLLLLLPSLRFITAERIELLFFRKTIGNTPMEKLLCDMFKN
Chain of Nonstructural protein 1 (Q194T2 whole entry): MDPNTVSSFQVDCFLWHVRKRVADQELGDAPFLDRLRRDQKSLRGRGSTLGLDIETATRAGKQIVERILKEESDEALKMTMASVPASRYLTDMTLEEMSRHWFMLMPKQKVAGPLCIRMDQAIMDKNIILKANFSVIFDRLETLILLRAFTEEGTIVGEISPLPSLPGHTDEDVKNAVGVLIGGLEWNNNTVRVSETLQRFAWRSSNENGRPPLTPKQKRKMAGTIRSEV

In the case of CC(=O)c1cccc(NC(=O)c2cccc(N3C(=O)c4ccccc4C3=O)c2)c1, the IC50 [1] was 8.03 µM (active) and the IC50 [2] was > 66.6 µM (inactive).
For Cc1ccc(Cc2c(C)nc3nc(SCC(=O)NCCN4CCOCC4)nn3c2C)cc1, the AC50 [3] was 12.6 µM (active).
In the case of Oc1[nH]c2ccc(Br)cc2c1N=NC(=S)N1CCOCC1, the AC50 (INS1) was 1.6 µM (active), the EC50 (Protein RecA) was 22.7 µM (active) and the EC50 (Streptococcus) was 0.167 µM (active). For the same molecule, the EC50 (cells [4]) was 137 µM (active), the EC50 [5] was > 150 µM (inconclusive) and the EC50 [6] was > 260 µM (inactive). The IC50 (Nonstructural protein 1) was 19.9 µM (active), the AC50 [7] was 7.39 µM (active) and the EC50 (BJ [8]) was 1.81 µM (inconclusive). The EC50 (BJ [9]) was 12.8 µM (inconclusive), the EC50 [10] was 3.18 µM (active) and the AC50 [11] was > 380 µM (inactive). For the same molecule, the IC50 [12] was 1.81 µM (active), the AC50 (Paired box protein Pax-8) was 1.55 µM (active) and the EC50 (BJ [13]) was 5.1 µM (inconclusive). The EC50 [14] was 7.46 µM (inconclusive), the EC50 [15] was < 0.06 µM (active) and the EC50 (cells [16]) was > 350 µM (not active).
In the case of O=C(CCS(=O)(=O)c1ccc(Br)cc1)N1CCCCCC1, the IC50 [1] was 13 µM (active) and the IC50 [2] was > 66.6 µM (inactive).
With O=C1CNC(=O)N1CC(O)Cn1c2ccccc2c2ccccc21 (centres undefined) the IC50 [17] was 11.9 µM (inactive).
For COc1ccc(CC2C(=O)NC(C)C(=O)N(C)C3Cc4ccc(cc4)Oc4cc(ccc4O)CC(C(=O)NC(C)C(=O)NC(C)C(=O)N2C)N(C)C3=O)cc1 (centres undefined), the GI50 (P388/ADR) was 3.94 µM (inactive), the GI50 (P388) was 0.0175 µM (active) and the CC50 (Vero) was 3.44 µM (active). The AC50 (Paired box protein Pax-8) was < 0.26 µM (active) and the IC50 [18] was 49.8 µM (inactive).
With CC1CC(C)C(=NNC(N)=O)C(C(O)CC2CCC(=O)NC2=O)C1 (centres undefined) the AC50 [19] was < 0.195 µM (active), the IC50 [12] was 2.53 µM (active) and the CC50 (Vero) was > 25 µM (active).
For C[C@@H]1CCCCO[C@@H](CN(C)S(=O)(=O)c2ccccc2)[C@@H](C)CN([C@H](C)CO)C(=O)c2cc(NS(=O)(=O)c3ccc(F)cc3)ccc2O1, the IC50 [17] was 1.9 µM (active).
With COCCNC(=O)C[C@@H]1CC[C@@H]2[C@@H](COc3ccc(NC(=O)Nc4cccc(F)c4)cc3C(=O)N2C)O1 the AC50 [3] was 10.8 µM (active).
